From patent US10835532B2, “Muscarinic agonists as cognitive enhancers” (The University of Toledo, priority 2008, dated 2020)
Entries after “also recorded” stand apart in the source; their conditions may differ.

What was measured:
[1] = test system: Long Evans rats; assay: Delayed spontaneous alternation in four-arm cross maze (working memory); type: in vivo, rat
Excerpt: Various neurodegenerative diseases and psychiatric disorders are marked by alterations in brain M1 muscarinic cholinergic receptor function and cognitive deficits including working memory and cognitive flexibility impairments. Alleviating such deficits in conditions such as Alzheimer's disease and schizophrenia has been limited due to a lack of agonists with M1 muscarinic receptor subtype specificity. CDD-102A is a functionally-selective M1 agonist with lower activity at other muscarinic receptor subtypes. The present experiment investigated the effects of systemic treatment with CDD-102A on working memory and/or attentional set-shifting in rats. All testing occurred in a four-arm cross maze. Delayed (30 sec) spontaneous alternation in Long Evans rats was used as a test for working memory. […] A shift between a place and visual cue discrimination was used as an attentional set-shifting test. In this set of experiments, rats received either vehicle or CDD-102A (0.003-0.1 mg/kg) 30 minutes prior to testing in a place-visual cue set-shifting task. To evaluate the effects of muscarinic agonists on memory function in normal animals, rats were tested on a delayed spontaneous alternation task in a modified T-maze. The task takes advantage of rats' natural tendency to alternate. Animals were placed in a 4-arm maze shaped like a “+”. If a rat chose four different arms in four consecutive choices it was scored as an alternation. A delay was inserted between arm choices to help assess memory function. In the delay version of the task, CDD-0102A (a functionally selective M1 agonist) improved memory function in a dose dependent manner (see FIG. 1). All testing was carried out in a four-arm cross-maze made of 0.6 cm thick black plastic was used for all behavioral testing. The maze was placed on a table that was 72 cm above the floor. Each arm was 55 cm long 10 cm wide. The height of the arm walls was 15.0 cm. […] The number and sequence of arm entries was recorded. An arm entry was recorded when all four paws entered an arm. […]

[2] = test system: rat; assay: Salivation following i.p. injections in the rat; type: in vivo
Excerpt: FIG. 6 presents a graph comparing the effects of CDD-0102A on memory function and salivation following i.p. injections in the rat.

[3] = test system: rats; assay: Place-visual cue attentional set-shifting task (cognitive flexibility); type: in vivo, rat
Excerpt: Various neurodegenerative diseases and psychiatric disorders are marked by alterations in brain M1 muscarinic cholinergic receptor function and cognitive deficits including working memory and cognitive flexibility impairments. Alleviating such deficits in conditions such as Alzheimer's disease and schizophrenia has been limited due to a lack of agonists with M1 muscarinic receptor subtype specificity. CDD-102A is a functionally-selective M1 agonist with lower activity at other muscarinic receptor subtypes. The present experiment investigated the effects of systemic treatment with CDD-102A on working memory and/or attentional set-shifting in rats. All testing occurred in a four-arm cross maze. Delayed (30 sec) spontaneous alternation in Long Evans rats was used as a test for working memory. […] A shift between a place and visual cue discrimination was used as an attentional set-shifting test. In this set of experiments, rats received either vehicle or CDD-102A (0.003-0.1 mg/kg) 30 minutes prior to testing in a place-visual cue set-shifting task. A treatment was administered either prior to the acquisition phase or prior to the shift phase. […] To examine cognitive flexibility, animals were evaluated for their ability to learn a place-visual cue task. Local cues in the maze arms included a black board in one arm and white board in the other arm. The cues were switched between the choice arms randomly across trials so the same cue was not always in the same location. Rats first learned to use a place strategy—always enter the same arm to receive a cereal reinforcement. Criterion was set at 10 consecutive correct trials. No treatment was given to rats prior to learning the place strategy test. The results are shown with the two bars on the left side of the graph in FIG. 2, showing that learning of a place-visual cue task. CDD-0102A, at a dose of 0.03 mg/kg decreased the number of trials to criterion (10 consecutive correct choices). Vehicle (N=3), CDD-0102A (N=4). The following day, rats had to inhibit using a place strategy and learn a visual cue strategy. That is, a rat had to choose the arm that contained a particular color cue (e.g., black). The criterion again was set at 10 consecutive correct trials. Rats received either saline (N=3) or CDD-0102A at 0.03 or 0.1 mg/kg (N=4) 30 minutes prior to testing. The results are shown in the middle of FIG. 2. […] Similar studies evaluated the ability of animals to shift from learning a visual cue task to a place strategy. Again criterion was set at 10 consecutive correct trials. Rats received either saline (N=3) or CDD-0102A at 0.03 or 0.1 mg/kg (N=4) 30 minutes prior to testing. The results are shown in the middle of FIG. 3. […] All testing was carried out in a four-arm cross-maze made of 0.6 cm thick black plastic was used for all behavioral testing. The maze was placed on a table that was 72 cm above the floor. Each arm was 55 cm long 10 cm wide. The height of the arm walls was 15.0 cm. Each arm contained a food well (3.2 cm diameter×1.6 cm high) that was 3 cm away from the end wall. Each food-well hole was 2.3 cm in diameter and 1.6 cm deep.

[4] = rats, 0.03 or 0.1 mg/kg 30 minutes prior to testing, compared to controls, hydrochloride
[5] = shift from place cue task to visual cue task, 0.03 and 0.1 mg/kg
[6] = shift from visual cue task to place cue task, 0.03 and 0.1 mg/kg

SMILES: CCc1noc(C2CN=CNC2)n1.Cl (stereo not shown) [CDD-0102A, 5-(3-ethyl-1,2,4-oxadiazol-5-yl)-1,4,5,6-tetrahydropyrimidine hydrochloride]
- Memory function in the delay version of the spontaneous alternation task ([1]; normal rats, i.p., dose dependent (FIG. 1)): improved
- Delayed spontaneous alternation performance ([1]; rats, 0.1, 0.3 and 1 mg/kg i.p. 30 minutes before testing, 30 sec delay, listed as CDD-102A, hydrochloride): significantly enhanced
- Number of arm entries (locomotor activity) ([1]; rats, all the doses tested, i.p.): did not alter
- Lowest dose producing salivation [2]: 0.3 mg/kg
- Separation between the dose enhancing place-visual cue learning (0.03 mg/kg i.p.) and the lowest dose producing salivation [2]: ten-fold lower
- Acquisition of a place or visual cue discrimination ([3]; rats, 0.003-0.1 mg/kg 30 minutes prior to the acquisition phase): did not affect
- Shift between a place and visual cue discrimination ([3]; rats, 0.03 and 0.1 mg/kg, 30 minutes prior to the shift phase): significantly enhanced
- Trials to criterion (10 consecutive correct choices), shift from place cue task to visual cue task [3, 4]: about half the trials; also recorded: decreased
- Trials to criterion (10 consecutive correct choices), shift from visual cue task to place cue task [3, 4]: decreased; also recorded: about half the trials
- Ability to initially inhibit a previously relevant strategy and maintain a new, relevant strategy once selected ([3]; rats, shift to the place or to the visual cue strategy): significantly increased
- Number of never-reinforced errors [3, 5]: decreased
- Number of perseverative errors [3, 5]: decreased
- Number of regressive errors [3, 5]: decreased
- Number of never-reinforced errors [3, 6]: no significant impact
- Number of perseverative errors [3, 6]: decreased
- Number of regressive errors [3, 6]: decreased
